Test results reported in publication doi:10.1101/2025.10.10.681657 (bioRxiv, 2025).
Entries after “also recorded” stand apart in the source; their conditions may differ.

Tests used:
[1] = system: Snu13-U4/U6 RNA interaction; assay: EMSA of Snu13-U4/U6 RNA complex; assay type: biochemical, yeast; conditions: 1 μM Snu13, compound 0.5 to 20 μM, gel band quantification; read-out: IC50 (RNA-protein complex formation)
Procedure: The 5′-end Cy5 labeled U4U6 RNA in 11.25 mM KPO4 pH 7.0, 310 mM KCl, and 5 mM EDTA was folded based on the above-mentioned method. The folded RNA was incubated with 1 μM Snu13 protein in the buffer containing 20 mM Tris-Cl pH 7.6, 150 mM NaCl, and 0.1% of Triton X-100 and 2 mM DTT for 30 min at room temperature. Then the compound (0.5 μM to 20 μM) was added to the samples and incubated at room temperature for 15 min. The samples were loaded into the 8% native PAGE gel and visualized by AMERSHAM TYPHOON Biomolecular Imager. Image J software was used for image processing. RNA-protein complex formation in the presence of increasing concentration of compound 22 was calculated by quantifying the higher molecular weight band intensity and normalized to the band intensity of RNA-protein complex in the absence of compound. Values reported are the average of three replicates. The half-maximal inhibitory concentration (IC50) was determined by fitting the data in inhibitor dose–response curves in GraphPad Prism 9. Quantitative data were presented as the mean ± SEM.

[2] = system: U4/U6 snRNA construct 92 nt (WT, No. 1) (RNA, junction) GGCCUUAUGCACGGGAAAUACGCAUAUCAGUGAGGAUUCGUCCGAGAUUGUGUUUUUGCUGGUGUAAAUCAGCAGUUCCCCUGCAUAAGGCU; assay: SPR steady state; conditions: 1x PBS; pH 7.4, 0.005% Tween 20, 5% DMSO
[3] = system: U4/U6 snRNA construct 92 nt (WT, No. 1), Cy5 (RNA, junction) GGCCUUAUGCACGGGAAAUACGCAUAUCAGUGAGGAUUCGUCCGAGAUUGUGUUUUUGCUGGUGUAAAUCAGCAGUUCCCCUGCAUAAGGCU; assay: MST (T-jump, 1:1 fit); conditions: running buffer, 5% DMSO, 50 nM RNA
[4] = target: U4/U6 snRNA construct (92 nt); assay: SPR binding to U4/U6 snRNA construct (92 nt); design: species or system yeast; conditions: 92 nt RNA, steady-state fit; >100 = signal appeared at 100 μM but failed to fit
Procedure: (§1) SPR experiments were carried out using an SPR optical biosensor (BIAcore 3000, Cytiva, USA) based on reported methods with minor modifications.[35] To avoid RNA degradation during long-time injections, the whole microfluidic system was washed by priming 50% RNase Zap buffer and RNase-free water one day before the experiments. Then, by using running buffer (1xPBS, pH7.4, 0.005% Tween 20, 5% DMSO) at a flow rate of 5 μL/min, the binding assays were performed. In brief, a CM5 chip surface coated with carboxylated dextran was activated by standard EDC/NHS amine-coupling protocol and then conjugated with streptavidin (200 ng/mL in 10 mM sodium acetate buffer, pH 4.5) for 30 min, resulting in 4000~6000 response units (RUs) signal. After streptavidin conjugation, the surface was deactivated (1 M ethanolamine, pH 8.5) for 10 min and regenerated (10 mM NaOH) for 2 min to remove unbound SA. Then, the folded U4/U6 RNA with biotin-label at 5′ end was prepared (according to the above-mentioned method) at 5 μM and injected in flow-cell (Fc) 2 for 30 min while Fc1 was kept blank as a reference. Then, the system continued flowing the running buffer until the baseline was stable before future steps.
To detect binding between small molecules and U4/U6 snRNA, a 50 μL compound solution was applied to both Fc1 and Fc2 channels simultaneously at a higher flow rate (25 μL/min). The binding curve contains 120 s association and 200 s dissociation. A pulse of 10 mM NaOH injection was used for regeneration if needed. To measure the dissociation constant (KD), titrations of compound solutions with a serial dilution were applied. The KD value was then calculated by fitting the binding curves based on a steady-state model in BIAevaluation 4.0 software and plotted in GraphPad Prism 9.

[5] = target: U4/U6 92-nt RNA construct; assay: MST binding to U4/U6 92-nt RNA; design: species or system yeast; conditions: 50 nM Cy5-labeled 92-nt RNA
Procedure: (§2) MST experiments were conducted using a Monolith NT.115 system (NanoTemper, Germany) as described previously.[36] 5′-Cy5-labeled U4/U6 RNA was folded as above-mentioned and diluted to 100 nM (2x) in a working buffer. For RNA-small molecule interactions, compounds were prepared in the running buffer (with 10% DMSO) and mixed with RNA in a 1:1 (v/v) ratio, resulting in 50 nM RNA and 5% DMSO in the final solution. Then, MST scanning was performed in triplicate using a red LED channel to obtain the binding signals. Binding affinity (KD) was determined by fitting the concentration-dependent curve in the T-jump region according to the 1:1 Langmuir binding model (MO.Affinity Analysis v2.3).

[6] = system: U4/U6 79-nt snRNA construct; assay: SPR binding test with 79 nt RNA lacking the K-turn; design: species or system yeast; conditions: 79 nt RNA that disrupts the 5′ SL; until 50 μM
Procedure: as §1, with “Then, the folded U4/U6 RNA with biotin-label at 5′ end was prepared (according to the above-mentioned method) at 5 μM and injected in flow-cell (Fc) 2 for 30 min while Fc1 was kept blank as a reference. Then, the system continued flowing the running buffer until the baseline was stable before future steps.” left out
To detect binding between small molecules and U4/U6 snRNA, a 50 μL compound solution was applied to both Fc1 and Fc2 channels simultaneously at a higher flow rate (25 μL/min). […] The KD value was then calculated by fitting the binding curves based on a steady-state model in BIAevaluation 4.0 software and plotted in GraphPad Prism 9.

[7] = system: U4U6 RNA for SHAPE-MaP (T7 transcript of Template) (RNA, junction) GGGCCUUCGGGCCAAGGCCUUAUGCACGGGAAAUACGCAUAUCAGUGAGGAUUCGUCCGAGAUUGUGUUUUUGCUGGUGUAAAUCAGCAGUUCCCCUGCAUAAGGCUUCGAUCCGGUUCGCCGGAUCCAAAUCGGGCUUCGGUCCGGUUC; assay: SHAPE-MaP / deltaSHAPE (2A3); conditions: KCl (3.3x folding buffer: 1023 mM); potassium phosphate pH 7.0, EDTA; 100 μM compound
[8] = system: U4/U6 snRNA construct 79 nt (No. 2, K-turn disrupted) (RNA, junction) GGCCUUAUGCACGGGAAAUACGCAUAUCGUAAGAUUGUGUUUUUGCUGGUGUAAAUCAGCAGUUCCCCUGCAUAAGGCU; assay: SPR; conditions: 1x PBS; pH 7.4, 0.005% Tween 20, 5% DMSO; no binding up to 50 μM
[9] = system: U4/U6 snRNA construct 92 nt (WT, No. 1), Cy5 (RNA, junction) GGCCUUAUGCACGGGAAAUACGCAUAUCAGUGAGGAUUCGUCCGAGAUUGUGUUUUUGCUGGUGUAAAUCAGCAGUUCCCCUGCAUAAGGCU; assay: EMSA; conditions: 150 mM NaCl; 20 mM Tris-Cl pH 7.6, 0.1% Triton X-100, 2 mM DTT; 1 μM Snu13 protein displaced
[10] = system: Snu13-U4/U6 RNA interaction; assay: KD shift assay by MST (protein-RNA inhibition); assay type: binding, yeast; conditions: 10 μM compound vs no compound
Procedure: as §2
For the protein-RNA inhibition assay, Snu13 protein was prepared in the running buffer (10 mM HEPES, pH 7.4, 150 mM NaCl, and 0.005% Tween 20) at different concentrations ranging from 0 μM to 5 μM. Meanwhile, a compound at a designated concentration was added to the annealed RNA solution. Then, the test solutions were prepared by 1:1 (v/v) mixing the protein and RNA-small molecule samples, followed by the standard MST procedure mentioned above.

[11] = system: NHP2L1 (Snu13) and U4 5′ SL; design: method as in PMID 28985478; conditions: cited from earlier work

Q: Which results are given for `CN(C)CCNc1nnc(-c2nc(-c3ccc(F)cc3)no2)c2ccccc12` [Compound 22]?
A: IC50 [1]: 3.2 ± 0.4 µM; KD [2]: 3.9 ± 2.2 µM; KD [3]: 9.1 ± 0.6 µM; Kd [4]: 3.9 ± 2.2 µM; Kd [5]: 9.1 ± 0.6 µM; SPR binding to 79 nt RNA [6]: did not show any binding; binding [7]: yes; binding [8]: no; IC50 [9]: 3.2 ± 0.4 µM; fold weaker Snu13 affinity [10]: 13 fold

Q: For `CC[C@@]1(O)C(=O)OCc2c1cc1n(c2=O)Cc2cc3c(CN(C)C)c(O)ccc3nc2-1` [topotecan], which “effect on NHP2L1-U4 5′ SL interaction” value [11] is on record?
A: Its value is “inhibit the interaction; also recorded: disrupts the binding”.
